Converted amounts (≈) assume the structure as drawn. Counter-ions that a name gives are not always drawn. Like-named read-outs stand apart in the source and are kept apart here.
How the values were obtained:
[1] = Saturation concentration (solubility) of drugs in NMP; assay type: physicochemical; conditions: quantified by HPLC; for solubility at 24 h: 40 °C, organic solvent or mixture, thermodynamic from solid
Method: The saturation concentration of a panel of fourteen (14) antiretroviral drugs in NMP was determined. For each drug, 100 mg was weighed into individual vials and 100 mg of NMP was added to each vial. The mixture was stirred at 40 °C for 24 h. […] Sample aliquots (1–2 mg, n = 4) were collected from the saturated supernatant and diluted with acetonitrile (ACN). Drug concentration in the saturated aliquots was determined by HPLC analysis.

[2] = cited from earlier work; for pKa: Supplementary Table 1; for LogP: log of drug partition coefficient, ref drugbank.ca
[3] = test system: HIV-1; conditions: cited from earlier work; for IC90: Supplementary Table 1
[4] = test system: HIV-1JR-CSF; test: In vitro HIV-1 inhibition in TZM-bl cells; assay type: cell-based; conditions: Human immunodeficiency virus 1, read-out: Effective concentration required to inhibit virus replication by 50% (IC50), DTG eluted (24 h in PBS) from solidified DTG-ISFI stored 6 months at 25 °C
Method: DTG-ISFI formulation was stored for 6 months at 25 °C and then solidified in PBS. The concentration of DTG eluted from the solidified implant after 24 h incubation in PBS was determined by HPLC and its HIV inhibitory activity was assessed using TZM-bl cells as described in the methods section.
Viral particles were collected in tissue culture medium that was centrifugated at 2000×g for 20 min at 4 °C to remove cell debris. […] Infected TZM-bl cells were stained using a solution containing 4 µM potassium ferrocyanide, 4 µM potassium ferricyanide, 2 µM magnesium chloride, 0.4 mg/ml X-gal[55],[56] and stained cells counted. TZM-bl cells were cultured at 37 °C 10% CO2 in TZM-bl medium (Dulbecco’s Modified Eagle Medium (Sigma) supplemented with 10% heat-inactivated fetal bovine serum, 25 mM HEPES, 500 units/ml penicillin, 50 µg/ml streptomycin and 2 mM L-glutamine (Cellgro)), and regularly checked for morphology by microscope.
Cells were regularly checked for morphology by microscopy. […] Luciferase activity was measured with a SpectraMax M3 Spectrometer (Molecular Devices, Sunnyvale, CA) and the results normalized to the luciferase activity of cells infected with HIV in the absence of DTG and expressed as a percentage of decrease in luciferase activity. Activity was measured in 3 independent experiments, each dilution measured in quadruplicate.

[5] = Saturation solubility in PBS with or without 2% solutol; assay type: physicochemical; conditions: for solubility: HPLC
[6] = pH 7; cited from earlier work

For `COC(=O)N[C@H](C(=O)N[C@@H](Cc1ccccc1)[C@@H](O)CN(Cc1ccc(-c2ccccn2)cc1)NC(=O)[C@@H](NC(=O)OC)C(C)(C)C)C(C)(C)C` [Atazanavir], the solubility at 24 h ([1]; N-methyl-2-pyrrolidone (NMP)) is listed as 328 ± 2 mg/mL (≈ 465 mM), the pKa [2] is listed as 4.3 and the LogP [2] is listed as 4.5. For the same compound, the “Protein-adjusted IC90 (PA-IC90)” value [3] was 0.014 µg/mL.

For `CC(C)CN(C[C@@H](O)[C@H](Cc1ccccc1)NC(=O)O[C@H]1CO[C@H]2OCC[C@H]21)S(=O)(=O)c1ccc(N)cc1` [Darunavir], the solubility at 24 h ([1]; N-methyl-2-pyrrolidone) is given as 511 ± 2 mg/mL (≈ 933 mM), the IC90 [3] is given as 0.00243 µg/mL (≈ 4.44e-06 mM) and the “Protein-adjusted IC90 (PA-IC90)” value [3] is given as 0.0024 µg/mL.

For `C[C@@H]1CCO[C@H]2Cn3cc(C(=O)NCc4ccc(F)cc4F)c(=O)c(O)c3C(=O)N12` [Dolutegravir], the solubility at 24 h ([1]; N-methyl-2-pyrrolidone (NMP)) was 255 ± 4 mg/mL (≈ 608 mM), the IC50 [4] was 0.0021 µg/mL (≈ 5.01e-06 mM) and the “Solubility in PBS + 2% solutol relative to PBS with no solutol” value ([5]; 37 °C) was ~ 6 fold. For the same compound, the solubility ([5]; PBS + 2% solutol, pH 7.4, aqueous with cosolvent or surfactant or cyclodextrin, thermodynamic from solid, 37 °C) was 0.564 ± 0.0036 mg/mL, the solubility ([5]; PBS with no solutol, 37 °C, read-out: Solubility in PBS with no solutol) was 0.091 mg/mL (≈ 0.217 mM) and the LogP [2] was 2.2. For the same compound, the “in vitro protein-adjusted IC90 for HIV-1” value [3] was 0.064 µg/mL.

In the case of `O=C1Nc2ccc(Cl)cc2[C@@](C#CC2CC2)(C(F)(F)F)O1` [Efavirenz], the solubility at 24 h ([1]; N-methyl-2-pyrrolidone (NMP)) is given as 118 ± 2 mg/mL (≈ 374 mM) and the LogP [2] is given as 4.6.

In the case of `Nc1nc(=O)n([C@@H]2CS[C@H](CO)O2)cc1F` [Emtricitabine], the solubility at 24 h ([1]; N-methyl-2-pyrrolidone (NMP)) is listed as 202 ± 3 mg/mL (≈ 817 mM) and the IC90 [3] is listed as 0.051 µg/mL (≈ 0.000206 mM).

For `Cc1cc(C#N)cc(C)c1Oc1nc(Nc2ccc(C#N)cc2)nc(N)c1Br` [Etravirine], the solubility at 24 h ([1]; N-methyl-2-pyrrolidone (NMP)) is given as 122 ± 2 mg/mL (≈ 280 mM), the pKa [2] is given as 3.75 and the LogP [2] is given as 5.54. For the same compound, the IC90 [3] was 0.0013 µg/mL (≈ 2.99e-06 mM).

In the case of `Nc1ccn([C@@H]2CS[C@H](CO)O2)c(=O)n1` [Lamivudine], the solubility at 24 h ([1]; N-methyl-2-pyrrolidone (NMP)) is reported as 250 ± 3 mg/mL (≈ 1090 mM).

For `CCN1C[C@H](C)n2c(c(O)c3c(=O)n(Cc4ccc(F)c(Cl)c4)nc(C(=O)NC)c32)C1=O` [MK-2048], the “Saturation solubility in NMP” value ([1]; N-methyl-2-pyrrolidone) is given as 715 ± 5 mg/mL, the “Solubility in PBS + 2% solutol relative to PBS with no solutol” value ([5]; pH 7.4) is given as ~ 9 fold and the Solubility in water [6] is given as < 0.1 mg/mL. For the same compound, the “in vitro 90% inhibitory concentration (IC90)” value ([3]; against HIV-1) was ~ 0.033 μg/mL and the “Protein-adjusted IC90 (PA-IC90)” value [3] was 0.033 µg/mL.

For `Cc1ccnc2c1NC(=O)c1cccnc1N2C1CC1` [Nevirapine], the pKa [2] is listed as 2.8, the LogP [2] is listed as 2.5 and the IC90 [3] is listed as 0.04 µg/mL (≈ 0.00015 mM).

In the case of `Cc1nnc(C(=O)NC(C)(C)c2nc(C(=O)NCc3ccc(F)cc3)c(O)c(=O)n2C)o1` [Raltegravir], the solubility at 24 h ([1]; N-methyl-2-pyrrolidone) is given as 54 ± 2 mg/mL (≈ 122 mM), the pKa [2] is given as 6.3 and the LogP [2] is given as -0.39. For the same compound, the IC90 [3] was 0.00053 µg/mL (≈ 1.19e-06 mM).

In the case of `Cc1cc(/C=C/C#N)cc(C)c1Nc1ccnc(Nc2ccc(C#N)cc2)n1` [Rilpivirine], the solubility at 24 h ([1]; N-methyl-2-pyrrolidone (NMP)) is listed as 228 ± 5 mg/mL (≈ 622 mM), the LogP [2] is listed as 4.86 and the IC90 [3] is listed as 0.0125 µg/mL (≈ 3.41e-05 mM). The “Protein-adjusted IC90 (PA-IC90)” value [3] was 0.012 µg/mL.

In the case of `CC(C)c1nc(CN(C)C(=O)N[C@H](C(=O)N[C@@H](Cc2ccccc2)C[C@H](O)[C@H](Cc2ccccc2)NC(=O)OCc2cncs2)C(C)C)cs1` [Ritonavir], the IC90 [3] is listed as 2.1 µg/mL (≈ 0.00291 mM).

In the case of `Cc1cn([C@H]2C=C[C@@H](CO)O2)c(=O)[nH]c1=O` [Stavudine], the solubility at 24 h ([1]; N-methyl-2-pyrrolidone (NMP)) is given as 248 ± 3 mg/mL (≈ 1110 mM), the pKa [2] is given as 10.26 and the LogP [2] is given as -0.7. The IC90 [3] was 0.03 to 0.3 µg/mL.

In the case of `CC(C)OC(=O)OCOP(=O)(CO[C@H](C)Cn1cnc2c(N)ncnc21)OCOC(=O)OC(C)C` [TenofovirDisoproxil Fumarate], the solubility at 24 h ([1]; N-methyl-2-pyrrolidone (NMP)) is given as 156 ± 2 mg/mL and the IC90 [3] is given as 0.00554 µg/mL.
